In publication PMC11173104, “Synthesis and Antioxidant Activity of N-Benzyl-2-[4-(aryl)-1H-1,2,3-triazol-1-yl]ethan-1-imine Oxides” (International Journal of Molecular Sciences, 2024):

Assays:
[1] = Reducing activity (RA): interaction with the stable free radical DPPH; conditions: 100 µM
Method: DPPH is a stable free radical, advantageous for testing compounds in an ethanolic solution, which in its oxidized form presents a maximum absorbance at about 517 nm. The DPPH method is independent of the molecule’s polarity. […] Nitrones 10b, 10c, and 10d highly interact with DPPH (64.5–81%) after 20 min, whereas 10a presents a lower value. In general, the insertion of a substituent increases the reducing activity (RA). […] It seems that an acceptor, such as a fluorine atom, with small molar refractivity (MR) in the para position offers antioxidant ability. […] RA is not influenced by lipophilicity within this nitrones group. The interaction values are increased for all after 60 min (78–81%), showing time dependency. For the sake of comparison, NDGA was used as a standard reference compound.
To an ethanolic solution of DPPH (0.05 mM) in absolute ethanol, 10 µL from a stock solution (10 mM) in the DMSO of the compounds was added. The mixture was shaken vigorously and allowed to stand for 20 min or 60 min; absorbance at 517 nm was determined spectrophotometrically and the percentage of activity was calculated. All tests were undertaken on three or four replicates and the results were averaged (Table 1). NDGA was used as a reference compound.

[2] = Inhibition of AAPH-induced linoleic acid lipid peroxidation (ILP); conditions: 100 µM, 37 °C, pH 7.4
Text: In our studies, the water-soluble azo AAPH was used as a thermal free radical initiator to induce the oxidative changes of linoleic acid to conjugated diene hydroperoxide. All nitrones except for 10c presented inhibition values (75–87%) lower than the common standard Trolox (93%) (Table 1). […] Lipophilicity seems to play a significant role related to a positive result since the inserted methyl group in compound 10b (75%) increases the lipophilicity of compound 10d driving it to higher inhibition (87%).
Ten microliters of the 16 mM linoleic acid sodium salt solution were added to the UV cuvette containing 0.93 mL of the 0.05 M phosphate buffer, pH 7.4 prethermostated at 37 °C. The oxidation reaction was initiated at 37 °C under air by the addition of 50 μL of the 40 mM AAPH solution. Oxidation was carried out in the presence of 10 μL of the compounds’ stock 10 mM solution in DMSO, in the assay. Lipid oxidation was measured in the presence of the same level of DMSO. The rate of oxidation at 37 °C was recorded as the absorption values at 234 nm and compared to Trolox (Table 1).

[3] = parameters: method as in PMID 36670898; conditions: previous work; cited from earlier work
[4] = ABTS•+ decolorization assay in ethanolic solution; conditions: 100 µM; 734 nm, 1 min
Method: ABTS^•+ was produced according to the described procedure as follows. An ABTS stock solution in water (7 mM) was mixed with potassium persulfate (2.45 mM) and left in a dark at room temperature for 12–16 h before use. A total of 10 µL of the investigated compounds were added to ethanol together with the cationic radical. The results were taken at 734 nm, after 1 min of the mixing procedure. Trolox was used as a positive standard (Table 1).

[5] = Competition with DMSO for hydroxyl radicals; conditions: 100 µM; Fe3+/ascorbic acid, 37 °C, 30 min
Method: Hydroxyl (^•OH) free radical is counted as the most toxic. As a result, it reacts with important biological molecules such as DNA, lipids, or carbohydrates. We found it interesting to test the scavenging activity of the compounds in competition with DMSO.
The hydroxyl radicals were produced by the Fe^3+/ascorbic acid system and detected by the determination of the formaldehyde produced from the oxidation of DMSO. EDTA (0.1 mM), Fe^3+ (167 μM), DMSO (33 mM) in phosphate buffer (50 mM, pH 7.4), the tested compounds (100 µM) and ascorbic acid (10 mM) were inserted, mixed, and incubated in test tubes at 37 °C for 30 min. The reaction was stopped by CCl3COOH (17% w/v) and the % scavenging activity of the nitrones for hydroxyl radicals was recorded. Trolox was used as a positive control (Table 1).

[6] = target: T1, soybean LOX (Glycine max, UniProt P08170); test: Soybean LOX inhibition in vitro (UV absorbance-based); format: biochemical; conditions: for IC50: Tris pH 9, sodium linoleate
T1 construct: purchased Aldrich Chemical Co., Milwaukee, WI, USA
T1 sequence (P08170 1-839): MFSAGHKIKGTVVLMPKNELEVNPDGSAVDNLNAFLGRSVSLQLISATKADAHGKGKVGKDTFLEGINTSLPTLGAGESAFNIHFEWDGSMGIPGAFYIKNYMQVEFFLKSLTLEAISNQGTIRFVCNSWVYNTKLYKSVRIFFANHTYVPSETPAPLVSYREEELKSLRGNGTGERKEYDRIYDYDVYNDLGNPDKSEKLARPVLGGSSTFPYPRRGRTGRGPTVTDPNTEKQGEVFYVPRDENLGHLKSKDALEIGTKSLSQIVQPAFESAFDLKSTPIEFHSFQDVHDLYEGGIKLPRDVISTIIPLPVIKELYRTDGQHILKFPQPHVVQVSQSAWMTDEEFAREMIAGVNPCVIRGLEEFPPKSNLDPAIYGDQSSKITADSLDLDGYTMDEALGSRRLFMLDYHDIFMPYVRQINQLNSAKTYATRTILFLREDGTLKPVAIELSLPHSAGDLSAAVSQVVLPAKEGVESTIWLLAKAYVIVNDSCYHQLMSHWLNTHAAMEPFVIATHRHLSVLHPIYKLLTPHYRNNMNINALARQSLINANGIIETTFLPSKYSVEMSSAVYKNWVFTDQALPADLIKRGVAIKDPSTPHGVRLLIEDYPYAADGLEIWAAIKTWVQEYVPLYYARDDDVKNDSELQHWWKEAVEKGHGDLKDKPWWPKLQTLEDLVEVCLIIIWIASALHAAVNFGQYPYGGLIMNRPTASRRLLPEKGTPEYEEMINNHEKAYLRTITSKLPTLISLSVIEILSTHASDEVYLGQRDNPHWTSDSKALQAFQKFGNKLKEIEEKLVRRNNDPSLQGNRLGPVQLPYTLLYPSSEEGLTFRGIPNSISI
Text: The appropriate stimulation of neutrophils cleaves arachidonic acid (AA) from membrane phospholipids, producing leukotrienes through lipoxygenase. Leukotriene B4 (LTB4) is a potent mediator of inflammation, considered to be important in the pathogenesis of neutrophil-mediated inflammatory diseases with a marked relation to the severity of cardiovascular diseases, stroke, and cancer. The enzyme lipoxygenase catalyzes the first two steps in the metabolism of AA, which is cleaved from membrane phospholipids to leukotrienes (LTB4). LTB4 generation is important in the pathogenesis of neutrophil-mediated inflammatory diseases.
The tested compounds dissolved in DMSO were incubated at rt with sodium linoleate (0.1 mL) and 0.2 mL of the enzyme solution (1/9 × 10^−4 w/v in saline) in buffer Tris pH 9.

SMILES | RA (%) 20 min [1] | RA (%) 60 min [1] | ILP (%) [2] | hydroxyl radical scavenging (%) [3] | ABTS•+ (%) [4] | Scavenging Activity for HO• (%) [5] | IC50 [6] | melting point | inhibition at 100 µM ([6]; at 100 µM)
CC(Cc1ccc(O)c(O)c1)C(C)Cc1ccc(O)c(O)c1 (stereo not drawn) [NDGA, nordihydroguaiaretic acid, reference compound] | 88% | 96% | – | – | – | – | – | – | –
Cc1c(C)c2c(c(C)c1O)CCC(C)(C(=O)O)O2 (stereo not drawn) [Trolox, reference compound] | – | – | 93% | 88% | 91% | 73% | – | – | –
[O-][N+](=CCn1cc(-c2ccc(F)cc2)nn1)Cc1ccccc1 [Nitrone 10b, N-Benzyl-2-[4-(4-fluorophenyl)-1H-1,2,3-triazol-1-yl]ethan-1-imine Oxide] | 81/81% | 81/81% | 75% | – | 46% | no | 62.5 µM | 129 to 131 °C | –
[O-][N+](=CCn1cc(-c2ccccc2)nn1)Cc1ccccc1 [Nitrone 10a, N-Benzyl-2-(4-phenyl-1H-1,2,3-triazol-1-yl)ethan-1-imine Oxide] | 57% | 78% | 81% | – | 8% | no | 85 µM | 134 to 136 °C | –
[O-][N+](=CCn1cc(-c2ccc(F)cc2F)nn1)Cc1ccccc1 [Nitrone 10c, N-Benzyl-2-[4-(2,4-difluorophenyl)-1H-1,2,3-triazol-1-yl]ethan-1-imine Oxide] | 79/79% | 79/79% | – | – | 23% | no | 10 µM | 112 to 113 °C | –
Cc1cc(-c2cn(CC=[N+]([O-])Cc3ccccc3)nn2)ccc1F [Nitrone 10d, N-Benzyl-2-[4-(4-fluoro-3-methylphenyl)-1H-1,2,3-triazol-1-yl]ethan-1-imine Oxide] | 64.4% | 79.5% | 87% | – | 23% | no | – | 131 to 133 °C | 45%
